Series [1] deals with Enterovirus 71 (EV71) H strain. Description: In vitro anti-EV71 activity (antiviral activity in RD cells, CellTiter-Glo). In kind it is cell-based. The following applies: for IC50: Enterovirus A, 96 h, EV71 H strain, RD cells, 4 days, CellTiter-Glo, read-out: IC50; for in vitro anti-EV71 activity, in words: EV71, RD cells. Summed up: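 RD cells infected with 100TCID50 EV71 in DMEM+2% FBS, with compound in 10-point three-fold dilutions, cultured 4 days at 37° C. Cell viability by CellTiter-Glo luminescence; inhibition rate relative to cell control fitted to S-curve for IC50. TD50 derived likewise; SI=TD50/IC50.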

The subject of the next series is RD cells. Kind of series: Detection of cytotoxicity in RD cells (CellTiter-Glo). The following applies: 4 days, CellTiter-Glo, median toxic dose. The format is cell-based. In outline:
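RD cells (1*10^5/mL) cultured 4 days at 37 °C with 10 compound concentrations from 3-fold dilution of a 400 μM pretreatment solution, final being 0.5 times that. Viability by CellTiter-Glo luminescence versus cell control; TD50 from S-curve fit; SI=TD50/IC50.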
(In general: Cellular ATP, detected with luciferase, serves as a proxy for viable cell number.)

A further series concerns the target T1, mTOR kinase (Homo sapiens, UniProt P42345).
T1 construct: purchased Thermo Fisher PV4753
Description: In vitro inhibitory activity on mTOR kinase (TR-FRET, GFP-4E-BP1 substrate). In kind it is biochemical. To be noted: for IC50: 0.5 μg/mL mTOR, 0.4 μM GFP-4E-BP1, 3 μM ATP. The method, then:
Preparation of Reaction Buffers:
Basic buffer composition: 50 mM (mmol/L) HEPES (pH 7.5), 1 mM EGTA, 0.01% Tween-20, 10 mM MnCl2, 2 mM DTT (diluted from 500 mM before used).
(2) mTOR kinase buffer solution: 1650 μL of 2.5×mTOR kinase buffer solution was composed of 1640.2 μL of 1× basic buffer and 9.8 μL of mTOR (0.21 mg/mL stock solution), and the final concentration was 0.5 μg/mL.
(3) Detection buffer solution: 3960 μL of 2× detection buffer solution was composed of 3797.1 μL of TR-FRET buffer diluent (purchased from Thermo Fisher, catalog number: PV3574), 4.5 μL of Tb-anti-p4E-BP1 antibody (3.49 μM stock solution, purchased from Thermo Fisher, catalog number: PV4757) and 158 μL of EDTA (500 mM stock solution), and the final concentrations were 2 nM Tb-anti-p4E-BP1 antibody and 10 mM EDTA.
(1) 20 μL of 100% DMSO solution containing 5 mM compound to be tested was added to a 96-well plate.
(2) The compound was serially diluted 3 times in DMSO.
(3) 1 μL of the compound in the previous step was taken, diluted with 19 μL of mTOR kinase buffer, and transferred to another 96-well plate.
(4) 4 μL of mTOR kinase solution (purchased from Thermo Fisher, catalog number: PV4753) was added to a 384-well plate.
(5) 2 μL of the compound in G was taken out and added to the 384-well plate with mTOR kinase, and incubated at room temperature for 15 minutes.
(6) 4 μL of substrate solution was added to initiate the reaction.
The final concentrations of mTOR reaction solution were: 0.5 μg/mL mTOR, 0.4 μM GFP-4E-BP1, 3 μM ATP.
The final concentration of the DMSO solution was 1%.
(7) Incubation was performed for 60 minutes at room temperature.
(8) 10 μL of detection buffer was added. The final concentrations were 2 nM Tb-anti-p4E-BP1 antibody and 10 mM EDTA.
(9) Incubation was performed for 30 minutes at room temperature.
(10) TR-FRET value was read on MD5 multi-mode plate reader (Molecular Devices). The excitation wavelength was 340 nm, the emission wavelength 1 was 495 nm, and the emission wavelength 2 was 520 nm. The ratio of 520 nm/495 nm readings was calculated as TR-FRET value.
IC50 of compound was fitted by nonlinear regression equation:
Y=Bottom+(Top-Bottom)/(1+10^((LogIC50-X)*HillSlope));
X: common logarithm value of compound concentration; Y: TR-FRET value (520 nm/495 nm).
A general note: TR-FRET usually uses a lanthanide donor and a delayed reading to cut background.

This is an account of results in patent US20220220106A1, “QUINOLINE COMPOUNDS AND PHARMACEUTICAL COMPOSITIONS AND USES THEREOF” (Academy of Military Medical Sciences, priority 2019, published 2022).

T1 sequence (P42345 1360-2549 limits assumed): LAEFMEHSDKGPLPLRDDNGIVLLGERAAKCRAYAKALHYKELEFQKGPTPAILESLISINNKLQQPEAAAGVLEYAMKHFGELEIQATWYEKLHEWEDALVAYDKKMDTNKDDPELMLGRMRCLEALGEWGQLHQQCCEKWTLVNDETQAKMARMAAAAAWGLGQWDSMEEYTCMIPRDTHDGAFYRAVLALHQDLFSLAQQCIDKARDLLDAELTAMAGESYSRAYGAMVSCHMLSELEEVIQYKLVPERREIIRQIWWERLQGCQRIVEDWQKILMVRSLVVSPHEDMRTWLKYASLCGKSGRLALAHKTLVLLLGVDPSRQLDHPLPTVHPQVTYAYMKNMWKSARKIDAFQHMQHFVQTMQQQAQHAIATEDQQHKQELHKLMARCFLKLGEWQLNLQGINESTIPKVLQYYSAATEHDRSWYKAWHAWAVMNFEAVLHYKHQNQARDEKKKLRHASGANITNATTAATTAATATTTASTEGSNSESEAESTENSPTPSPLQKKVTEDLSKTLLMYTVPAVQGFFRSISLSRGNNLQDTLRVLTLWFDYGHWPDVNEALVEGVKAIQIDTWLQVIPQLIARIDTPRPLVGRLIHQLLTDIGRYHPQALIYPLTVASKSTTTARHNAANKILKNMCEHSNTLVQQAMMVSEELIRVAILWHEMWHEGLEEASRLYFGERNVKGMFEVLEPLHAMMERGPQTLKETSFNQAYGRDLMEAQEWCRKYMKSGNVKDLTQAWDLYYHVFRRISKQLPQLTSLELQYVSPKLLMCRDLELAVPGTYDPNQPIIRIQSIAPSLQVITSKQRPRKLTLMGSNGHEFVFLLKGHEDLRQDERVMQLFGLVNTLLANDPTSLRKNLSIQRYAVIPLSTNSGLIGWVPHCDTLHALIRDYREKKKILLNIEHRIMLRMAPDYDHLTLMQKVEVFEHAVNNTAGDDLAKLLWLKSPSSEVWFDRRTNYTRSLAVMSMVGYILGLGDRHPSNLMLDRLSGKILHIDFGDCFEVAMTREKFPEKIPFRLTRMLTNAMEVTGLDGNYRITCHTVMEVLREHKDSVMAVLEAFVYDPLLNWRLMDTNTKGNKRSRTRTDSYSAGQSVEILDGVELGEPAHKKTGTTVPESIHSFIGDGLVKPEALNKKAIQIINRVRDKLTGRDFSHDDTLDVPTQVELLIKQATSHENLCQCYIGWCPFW

In the case of `NC(=O)NC/C=C/c1ccc2ncc3oc(=O)n(-c4cccc(C(F)(F)F)c4)c3c2c1` [HTL-6-34, (E)-8-(3-ureido-propenyl)-1-[3-(trifluoromethyl)phenyl]oxazolo[5,4-c]quinolin-2(1H)-one], in series [1], the IC50 is > 200 µM. Also, the TD50 in the series with RD cells stood at 66.64 ± 1.17 µM. At mTOR kinase, the “inhibitory activity on mTOR kinase, in words” value (“inhibitory activity” for short) is listed as “moderate inhibitory activity” and the IC50 was found to be 0.849 µM.
For `Cc1ccc(-c2ccc3ncc4oc(=O)n(-c5cccc(C(F)(F)F)c5)c4c3c2)cn1` [HTL-5-23, 8-[3-(6-methyl)pyridyl]-1-[3-(trifluoromethyl)phenyl]oxazolo[5,4-c] quinolin-2(1H)-one], the melting point fell in the range of 299 to 300 °C. In addition, in series [1], the “in vitro anti-EV71 activity, in words” value is reported as “moderate inhibitory activity” and the IC50 turned out to be 4.78 ± 1.73 µM. The TD50 with RD cells was found to be 16.88 ± 5.46 µM. Besides, at mTOR kinase, the “inhibitory activity” value is listed as “moderate inhibitory activity” and the IC50 was determined as 0.257 µM.
Compound `Cc1noc(C)c1-c1ccc2ncc3ccc(=O)n(-c4cccc(C(F)(F)F)c4)c3c2c1` [HTL-7-12, 9-[4-(3,5-dimethyl)isoxazolyl]-2-oxo-1-[3-(trifluoromethyl)phenyl]-1,2-dihydrobenzo[h][1,6]naphthyridine] came in with a melting point of 121 to 122 °C. In series [1], the 50% inhibitory concentration (IC50) was found to be 36.9 ± 0.41 µM. Also, the TD50 in the series on RD cells was >200 µM. Inhibition on mTOR kinase was half-maximal at 1.21 µM (IC50).
Take `CC(=O)/C=C/c1cnc2ccc(-c3ccc(N)cc3)cc2c1Nc1cccc(C(F)(F)F)c1` [HTL-2-35, (E)-6-(4-amino)phenyl-4-[3-(trifluoromethyl)phenyl]aminoquinoline-3-butenone]: the melting point lay in the range of 183 to 185 °C. Moreover, in series [1], the “in vitro anti-EV71 activity, in words” value is “moderate anti-EV71 activity” and the IC50 amounted to 3.7 ± 0.01 µM. In the series on RD cells, this compound came in with a TD50 of 5.14 ± 1.92 µM. Further, at mTOR kinase, the “inhibitory activity” value is recorded as “weak inhibitory activity” and 7.77 µM corresponded to half-maximal inhibition (IC50).
In the case of `COc1ncccc1-c1ccc2ncc3ccc(=O)n(-c4cccc(C(F)(F)F)c4)c3c2c1` [HTL-7-02, 9-[3-(2-methoxy)pyridyl]-2-oxo-1-[3-(trifluoromethyl)phenyl]-1,2-dihydrobenzo[h][1,6]naphthyridine], in series [1], the IC50 was > 200 µM. Further, the TD50 in the series on RD cells was >200 µM. At mTOR kinase, the “inhibitory activity” value was “moderate inhibitory activity” and it took 0.974 µM to reach half-maximal inhibition (IC50).
`N#Cc1ccc(Nc2ccc3ncc4ccc(=O)n(-c5cccc(C(F)(F)F)c5)c4c3c2)cc1` [HTL-6-22, 9-(4-cyanophenyl)imino-2-oxo-1-[3-(trifluoromethyl)phenyl]-1,2-dihydrobenzo[h][1,6]naphthyridine] gave a melting point of 259 to 260 °C. Also, the IC50 in series [1] is > 200 µM. Further, the TD50 in the series on RD cells was found to be 6.95 ± 0.86 µM.
`CCCCc1ccc(-c2ccc3ncc(/C=C/C(C)=O)c(Nc4cccc(C(F)(F)F)c4)c3c2)cc1` [HTL-3-42, (E)-6-(4-butyl)phenyl-4-[3-(trifluoromethyl)phenyl]aminoquinoline-3-butenone] had a melting point of 149 to 150 °C. Moreover, the IC50 in series [1] was > 200 µM. In addition, the TD50 in the series on RD cells worked out at 0.96 ± 0.15 µM.
For `CC(=O)/C=C/c1cnc2ccc(-c3ccc(C#N)cc3)cc2c1Nc1cccc(C(F)(F)F)c1` [HTL-3-15, (E)-6-(4-cyano)phenyl-4-[3-(trifluoromethyl)phenyl]aminoquinoline-3-butenone], the melting point was 173 to 174 °C. The IC50 in series [1] was > 200 µM. Besides, the TD50 with RD cells is >200 µM.
Taken in the same sequence, the figures for `CCOc1cccc(-c2ccc3ncc(/C=C/C(C)=O)c(Nc4cccc(C(F)(F)F)c4)c3c2)c1` [HTL-3-16, (E)-6-(3-ethoxy)phenyl-4-[3-(trifluoromethyl)phenyl]aminoquinoline-3-butenone] were 184 to 185 °C, > 200 µM and 0.83 ± 0.79 µM.
Regarding `CC(=O)/C=C/c1cnc2ccc(-c3ccc(F)c(C)c3)cc2c1Nc1cccc(C(F)(F)F)c1` [HTL-3-32, (E)-6-(4-fluoro-3-methyl)phenyl-4-[3-(trifluoromethyl)phenyl]aminoquinoline-3-butenone], the melting point is 209 to 210 °C. Moreover, the IC50 in series [1] was > 200 µM. The same compound returned a TD50 in the series with RD cells of 1.52 ± 0.87 µM.
Taken in the same sequence, the figures for `O=c1ccc2cnc3ccc(Nc4ccc(Cl)nc4)cc3c2n1-c1cccc(C(F)(F)F)c1` [HTL-6-21, 9-[3-(6-chloropyridyl)]imino-2-oxo-1-[3-(trifluoromethyl)phenyl]-1,2-dihydrobenzo[h][1,6]naphthyridine] were 137 to 138 °C, > 200 µM and 20.75 ± 2.11 µM.
With `CC(=O)/C=C/c1cnc2ccc(-c3ccc(C(C)C)cc3)cc2c1Nc1cccc(C(F)(F)F)c1` [HTL-3-39, (E)-6-(4-isopropyl)phenyl-4-[3-(trifluoromethyl)phenyl]aminoquinoline-3-butenone], the melting point is 143 to 144 °C. Further, the IC50 in series [1] is > 200 µM. Besides, the TD50 in the series on RD cells is 1.75 ± 0.73 µM.
On the same counts, the results for `C#CCNc1ccc(-c2ccc3ncc4ccc(=O)n(-c5cccc(C(F)(F)F)c5)c4c3c2)cn1` [HTL-7-29, 9-[3-(6-propargylamino)pyridyl]-2-oxo-1-[3-(trifluoromethyl)phenyl]-1,2-dihydrobenzo[h][1,6]naphthyridine] are 139 to 141 °C, 0.09 µM and 0.29 ± 0.03 µM.
`CC(=O)/C=C/c1cnc2ccc(-c3ccc(F)c(F)c3)cc2c1Nc1cccc(C(F)(F)F)c1` [HTL-3-34, (E)-6-(3,4-difluoro)phenyl-4-[3-(trifluoromethyl)phenyl]aminoquinoline-3-butenone]: the melting point lay within 210 to 213 °C. In series [1], the IC50 was > 200 µM. The same compound returned a TD50 in the series with RD cells of 3.02 ± 0.91 µM.

By IC50 is commonly meant the point on the concentration scale where inhibition reaches its midpoint. What is called melting point is the temperature of the solid-liquid transition.
